Reference: patent US12617817B2, “Carrier peptide fragment and use thereof” (TOAGOSEI CO., LTD., priority 2020, dated 2026)
FAM = fluorescein amidite (fluorescent dye, FAM)

System: HeLa cells
Test: Evaluating cell penetrating ability by flow cytometry (FAM fluorescence) in HeLa cells
Type: cell-based, human
Settings: for MFI (mean fluorescent intensity): additive 10 μM, 0.5% DMSO, 20 hours incubation at 37° C., flow cytometry FL2 detector, average of triplicate; for shift of flow cytometry histogram on the X-axis (fluorescent intensity) in comparison with Example 3 (only FAM): FIG. 1
Protocol: The cell penetrating ability of sample 1 and sample 2 was evaluated using HeLa cells (cell line established from human cervical cancer cells). In Table 2, Example 1 indicates a test of addition of sample 1 to a culture solution of HeLa cells, Example 2 indicates a test of addition of sample 2, Example 3 indicates a test of addition of FAM diluted with DMSO, and Example 4 indicates a test of addition of DMSO only.
HeLa cells were cultured in an ordinary culture medium, DMEM (Dulbecco's modified Eagle's medium, manufactured by Fuji Film Wako Pure Chemical Industries, Cat. No. 043-30085) containing 10% FBS (fetal bovine serum).
HeLa cells adhering to the culture plate were washed with PBS, 0.25% trypsin/EDTA solution was added, and the cells were incubated for 3 minutes at 37° C. After incubation, the same DMEM medium containing 10% FBS was added to deactivate the trypsin, and the cells were precipitated by 5 minutes of centrifugation at 150×g. The supernatant produced by centrifugation was removed, and the same DMEM containing 10% FBS was added to the precipitate (cell pellet) to prepare an approximately 1×10^5 cells/mL cell suspension. 2 mL of the cell suspension was added to the wells of a commercial 6-well plate (Iwaki microplate commercially available from AGC techno glass Co., Ltd) to seed the cells at a rate of approximately 2×10^5 cells/well. This was then cultured for 3 hours at 37° C. under conditions of 5% CO2, causing the cells to adhere to the bottom of the wells. Because the cell penetrating ability evaluation is performed in triplicate, cells were seeded in 3 wells for the test of Example 1, and the following operations were performed on each well.
Next, the above 2 mM sample solution 1 was diluted with the above DMEM containing 10% FBS to prepare a sample solution 1 in which the concentration of the sample 1 was 20 μM. 1 mL of the culture supernatant was removed from each well after the 3 hours of culture, and 1 mL of 20 μM sample solution 1 was added to the well so that the sample 1 concentration of the culture solution in the well was 10 μM and the DMSO concentration was 0.5%. This was then incubated for 20 hours at 37° C. under conditions of 5% CO2. After this 20-hour incubation, the culture supernatant was removed from the well, and the cells in the well were washed twice with 1 mL of PBS. 200 μL of 0.25% trypsin/EDTA solution was then added to the well, and the cells were incubated for 3 minutes at 37° C. After this incubation, 400 μL of the above DMEM containing 10% FBS was added to the well to deactivate the trypsin, after which the cell suspension in the well was transferred to a tube, and the cells were collected. 600 μL of PBS was then added to each well to wash the well. The PBS in the well was then transferred to the above tube to collect the cells remaining in the well in the tube. This tube was centrifuged for 5 minutes under conditions of 210×g at 4° C. After centrifugation the supernatant was removed, and the precipitate (cell pellet) was suspended (washed) in 1 mL of PBS and centrifuged under the same conditions. This operation was repeated twice to remove the supernatant and obtain cells (a cell pellet) that had been cultured in medium containing the sample 1.
The cells (cell pellet) obtained above were analyzed by flow cytometry to assess the cell penetrating ability of the sample 1. A flow cytometer (On-Chip Biotechnologies Co., Ltd.) was used for the analysis.
The cell pellet obtained above was suspended in 50 μL of PBS for purposes of this analysis. A further 50 μL of 2× sample buffer for flow cytometry was added to this suspension to prepare a cell suspension for analysis.
Gating was performed with the flow cytometer based on forward scatter (FSC) and side scatter (SSC), a gate was set for the cell population under analysis, and the cell population within this gate was measured for fluorescent intensity. Analysis was performed so that the cell population composed of at least 5,000 cells. […]

## 5(6)-carboxyfluorescein [Example 3]
  MFI (mean fluorescent intensity): 6

## FAM-KKRTLRKNDRKKR-CONH2 ({FAM}-KKRTLRKNDRKKR-NH2) [Example 2]
10 μM, 20 hours
  shift of flow cytometry histogram on the X-axis (fluorescent intensity) in comparison with Example 3 (only FAM): shifted to the right
  MFI (mean fluorescent intensity): 15.5

## FAM-KKRTLRKSNRKKR-CONH2 ({FAM}-KKRTLRKSNRKKR-NH2) [Example 1]
10 μM, 20 hours
  shift of flow cytometry histogram on the X-axis (fluorescent intensity) in comparison with Example 3 (only FAM): shifted to the right
10 μM, 20 hours, comparison of MFI of Example 1 with Example 2
  efficiency (cell penetrating ability), times higher than Example 2, from MFI values: 4 times
  MFI (mean fluorescent intensity): 62
